Measured values: patent publication US20150057346A1, “METHODS OF MAINTAINING INTRAMUSCULAR MYOGLOBIN LEVELS, MAINTAINING MAXIMAL AEROBIC CAPACITY, AND ENHANCING THE OXIDATIVE CAPACITY OF MUSCLE IN A SUBJECT” (ABBOTT LABORATORIES, priority 2013, published 2015)

Legend:
[1] = Body composition (lean mass by DXA) over 10 days of bed rest (clinical study); assay type: in vivo, human; conditions: over 10 day bed rest, healthy elderly subjects
Text: The 24 healthy subjects initially involved in the study were randomized into two groups. Subjects in the treatment group received two β-hydroxy-β-methylbutyrate (HMB) sachets containing 1.5 grams of Ca-HMB (TSI, Salt Lake City, Utah), 4 grams of maltodextrin, and 200 milligrams of calcium with additional sweetener and flavoring agents. Subjects in the control group received two control sachets that were identical to the HMB sachets with the exclusion Ca-HMB. This study was a double-blinded study. Neither the investigators nor the subjects were informed of the identity of any of the study products during the clinical portion of the study. […]
After a diet stabilization of 5 days (ambulatory period), subjects remained in bed continuously for 10 days. […] Subjects were constantly monitored by nursing staff and received a daily physical examination by the study physician.
Body weight was measured at baseline and after bed rest to the nearest 0.1 kilogram on an Ohaus scale (Ohaus Corporation, model 15S, Florham Park, N.J.). Nude body weight was calculated as total body weight minus hospital robe weight. Body height was measured to the nearest 0.1 cm without shoes using a stadiometer. Body mass index (BMI) was calculated as weight/height^2 (kg/m^2). […]

Myoglobin = test: Serum myoglobin levels before and after 10 days of bed rest (clinical study, RBM Human DiscoveryMAP); assay type: in vivo
Procedure: Example 3 describes a clinical study that was conducted to evaluate the effects of 10 days of bed rest on healthy elderly subjects. The exemplary methods are based, at least in part, on inventors' discovery that serum myoglobin levels change by statistically significant amounts in 18 healthy elderly subjects undergoing 10 days of bed rest. The exemplary methods are also based, at least in part, on inventors' discovery that intervention with HMB altered the change in serum myoglobin levels.
The 24 healthy subjects initially involved in the study were randomized into two groups. Subjects in the treatment group received two β-hydroxy-β-methylbutyrate (HMB) sachets containing 1.5 grams of Ca-HMB (TSI, Salt Lake City, Utah), 4 grams of maltodextrin, and 200 milligrams of calcium with additional sweetener and flavoring agents. Subjects in the control group received two control sachets that were identical to the HMB sachets with the exclusion Ca-HMB. This study was a double-blinded study. Neither the investigators nor the subjects were informed of the identity of any of the study products during the clinical portion of the study. Subjects were instructed to consume a sachet twice daily by mixing a sachet into a non-caloric, non-caffeinated, non-carbonated, non-milk-based beverage of their choice. Treatment with HMB or Control was initiated 5 days prior to bed rest and was continued until the end of the 10 day bed rest period.
After a diet stabilization of 5 days (ambulatory period), subjects remained in bed continuously for 10 days. While confined to bed rest, subjects were allowed to use the bedside commode for urination or were taken in a wheelchair for toileting. Subjects were given the option of taking a sponge bath or showering in a wheelchair. Prophylactic measures were taken to detect and prevent deep vein thrombosis including a blood D-dimer test followed by an ultrasound examination if D-dimer test was positive, passive range of motion exercise during bed rest, the use of TED hose and SCD over the bed rest period. Subjects were offered medication to help mitigate reflux problems associated with being supine. Subjects were constantly monitored by nursing staff and received a daily physical examination by the study physician.
Fasted blood samples were collected from subjects on Day 1 of bed rest and at the end of bed rest for measurement of biomarkers, including myoglobin.
Rules Based Medicine (Myriad RBM, Inc., Austin, Tex.) data generated from the RBM Human DiscoveryMAP v1.0 consists of n=187 biomarkers measured in serum collected at two time points, pre-bed rest and post-bed rest from 18 elderly subjects. The distribution of each marker was evaluated. Each marker has a least detectable dose (LDD) value, defined as the mean+3 standard deviations (SD) of 20 blank samples. For any subject whose marker result was <LDD, the LDD value as provided by RBM was imputed. If the marker result was >LDD, the original result was used. Any marker in which >30% of all subject's results were imputed was excluded from further statistical analyses. Of the initial n=187 RBM markers, n=63 markers from the RBM dataset were excluded from further analyses, leaving n=124 markers for evaluation.
The Control group was examined to determine the biomarkers that changed over bed rest. Individual univariate dependent t-tests were performed on each of the 124 markers. There were a total of 8 participants who had matched data over bed rest within the Control group.
In order to assess the changes in the markers over bed rest that may be mediated by HMB intervention, individual univariate ANCOVA analyses were subsequently performed on each of the 13 (unadjusted) significant markers from the multiple dependent t-tests. Using a Bonferonni adjusted p-value of 0.0038 (0.05/13), 10 markers, including myoglobin, were significant.

[2] = 10 subjects treated with HMB, after 10 days of bed rest
[3] = serum, pre- to post-bed rest (10 days), n = 10

In the case of `CC(C)(O)CC(=O)O` [HMB, β-hydroxy-β-methylbutyrate], the “average loss of total lean mass” value ([1]; p=0.42 paired t-test) is reported as -0.17 ± 0.19 kg, the “average loss of leg lean mass” value ([1]; p=0.65 paired t-test) is reported as -0.08 ± 0.17 kg and the “average decrease in blood levels of myoglobin” value (Myoglobin; [2]) is reported as 10.2 ng/mL. The “decrease in blood levels of myoglobin (percent)” value (Myoglobin; [2]) was 19%, the “Myoglobin Pre-bed rest Mean” value (Myoglobin; serum, healthy elderly subjects, n = 10, 1.5 g Ca-HMB sachet twice daily from 5 days prior to bed rest, Day 1 of bed rest) was 49.3 ng/mL and the “Myoglobin Post-bed rest Mean” value (Myoglobin; serum, healthy elderly subjects, n = 10, 1.5 g Ca-HMB sachet twice daily, end of 10 day bed rest) was 39.1 ng/mL. For the same compound, the “Myoglobin % Change” value (Myoglobin; [3]) was −19 ± 6% and the “Myoglobin Change” value (Myoglobin; [3]) was -10.2 ± 6.4 ng/mL.
